Structures are written as SMILES.

For the assay, the target named is T1, Endothelial lipase (EL) (Homo sapiens, UniProt Q9Y5X9).
T1 construct: transformed by RAGE technology (Athersys) to overexpress endogenous EL; endogenous in cells; the conditioned medium served as the enzyme source
T1 sequence (Q9Y5X9 21-500): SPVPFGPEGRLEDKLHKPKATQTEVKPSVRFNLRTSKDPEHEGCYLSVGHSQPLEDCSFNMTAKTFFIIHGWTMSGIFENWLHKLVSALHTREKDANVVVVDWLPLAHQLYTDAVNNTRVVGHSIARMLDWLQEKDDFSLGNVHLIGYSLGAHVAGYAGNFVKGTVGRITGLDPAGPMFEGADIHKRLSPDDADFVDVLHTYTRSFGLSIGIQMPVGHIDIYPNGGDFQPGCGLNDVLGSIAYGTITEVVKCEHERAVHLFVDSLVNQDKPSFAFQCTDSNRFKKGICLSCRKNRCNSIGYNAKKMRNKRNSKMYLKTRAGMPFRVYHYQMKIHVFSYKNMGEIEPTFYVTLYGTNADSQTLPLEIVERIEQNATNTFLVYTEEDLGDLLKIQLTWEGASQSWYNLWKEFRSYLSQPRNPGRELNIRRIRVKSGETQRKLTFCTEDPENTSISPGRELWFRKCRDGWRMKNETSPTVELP
The experiment in a line: Endothelial lipase (EL) enzymatic assay with fluorescent substrate A10070 in DMPG vesicles. The settings on record: conditioned media from HT-1080 cells overexpressing endogenous EL; 20 min preincubation at 37° C. Format: biochemical. The procedure: Endothelial lipase activity was measured using a fluorescent substrate, A10070, (Invitrogen, CA) doped into an artificial vesicle containing DMPG (Avanti Polar Lipids) as the excipient. Vesicles were prepared by combining 285 μL of 1 mM DMPG in a 1:1 mixture of MeOH and CHCl3 with 15 μL of 1 mM A10070 in a 1:1 mixture of MeOH and CHCl3. The mixture was dried under nitrogen and resuspended in 150 μL of 50 mM HEPES pH 8.0 buffer containing 100 mM NaCl and 0.2 mM EDTA. The sample was allowed to sit at rt for 15 min and then was sonicated 3×4 mins on ice with a Branson Sonicator using duty cycle 1. This preparation provides vesicles with a mole fraction of 0.05 for the FRET substrate.
The enzymatic assay was measured using white, opaque 96-well half area plates. Each well contained 60 μL of assay buffer (50 mM HEPES pH 8.0, 50 mM NaCl and 1 mM CaCl2) and 2 ul of a DMSO solution containing compound of interest. Conditioned media obtained from HT-1080 cells, which were transformed by RAGE technology (Athersys) to overexpress endogenous EL, was added and the reaction was allowed to incubate for 20 min at 37° C. with gentle agitation. The reaction was started by the addition of 20 μL of a 1:4 dilution of vesicles. The final total reaction volume was 100 μL. The reaction rates were measured on a Gemini plate reader with an excitation wavelength of 488 nm and an emission of 530 nm. Readings were taken every 20 seconds for 10 min with agitation between each reading. The slope of the linear portion of the readout was used to calculate the rate of the reaction.
As usually defined, the IC50 is the point on the concentration scale where inhibition reaches its midpoint. Read a high IC50 as weaker potency in that assay. Take `N#CC(C(=O)NCC(=O)NC1CC1)c1nc2ncc(-c3ccccc3)cc2s1` (centres unmarked) [Example 21, 2-cyano-N-(2-(cyclopropylamino)-2-oxoethyl)-2-(6-phenylthiazolo[4,5-b]pyridin-2-yl)acetamide]: the midpoint of inhibition, the IC50, lay at 13 nM.

`N#CC(C(=O)NCC(=O)NC1CC1)c1nc2ccc(-c3cccc(C(=O)N4CCOCC4)c3)cc2s1` (centres unmarked) [Example 10, 2-cyano-N-[(cyclopropyl-carbamoyl)methyl]-2-{6-[3-(morpholine-4-carbonyl)phenyl]-1,3-benzothiazol-2-yl]acetamide] registered an IC50 of 18 nM.

For the molecule `COCCNC(=O)c1ccc(-c2cnc3nc(C(C#N)C(=O)NCC(=O)NC4CC4)sc3c2)cc1` (centres unmarked) [Example 25, 4-{2-[cyano({[(cyclopropyl-carbamoyl)methyl]carbamoyl})methyl]-[1,3]thiazolo[4,5-b]pyridin-6-yl}-N-(2-methoxyethyl) benzamide], the IC50 is 40 nM.

Regarding `COCCNC(=O)c1ccc(-c2ccc3nc(C(C#N)C(=O)NCC(=O)NC4CC4)sc3c2)cc1` (centres unmarked) [Example 12, 4-{2-[cyano ({[(cyclopropyl-carbamoyl)methyl]carbamoyl})methyl]-1,3-benzothiazol-6-yl}-N-(2-methoxyethyl) benzamide], the IC50 was found to be 16 nM.

`N#CC(C(=O)NCC(=O)NC1CC1)c1nc2ccc(-c3ccc(C(N)=O)cc3)cc2s1` (centres unmarked) [Example 11, 4-{2-[cyano ({[(cyclopropyl-carbamoyl)methyl]carbamoyl})methyl]-1,3-benzothiazol-6-yl} benzamide] displayed an IC50 of 26 nM.

Regarding `CN1CCN(C(=O)c2ccc(-c3ccc4nc(C(C#N)C(=O)NCC(=O)NC5CCC5)sc4c3)cc2)CC1` (centres unmarked) [Example 19, 2-cyano-N-[(cyclobutyl-carbamoyl)methyl]-2-{6-[4-(4-methyl-piperazine-1-carbonyl)phenyl]-1,3-benzothiazol-2-yl} acetamide], the IC50 amounted to 3140 nM.

As for `CN1CCN(C(=O)c2ccc(-c3ccc4nc(C(C#N)C(=O)NCC(=O)NC5CC5)sc4c3)cc2)CC1` (centres unmarked) [Example 20, 2-cyano-N-[(cyclopropyl-carbamoyl)methyl]-2-{6-[4-(4-methyl-piperazine-1-carbonyl)phenyl]-1,3-benzothiazol-2-yl} acetamide], the IC50 is 130 nM. This IC50 lies about 24-fold lower than the previous one.

Turning to `N#CC(C(=O)NCC(=O)NC1CC1)c1nc2ccc(-c3ccc(NC(=O)OCc4ccccc4)cc3)cc2s1` (centres unmarked) [Example 15, benzyl N-(4-{2-[cyano ({[(cyclopropyl-carbamoyl)methyl]carbamoyl})methyl]-1,3-benzothiazol-6-yl}phenyl) carbamate], the IC50 was found to be 1.4 nM.

The molecule `N#CC(C(=O)NCC(=O)NC1CC1)c1nc2ccc(-c3ccc(C(=O)N4CCCCC4)cc3)cc2s1` (centres unmarked) [Example 13, 2-cyano-N-[(cyclopropyl-carbamoyl)methyl]-2-{6-[4-(piperidine-1-carbonyl)phenyl]-1,3-benzothiazol-2-yl} acetamide] showed an IC50 of 11 nM. This IC50 lies about 7.9-fold higher than the previous one.

For `N#CC(C(=O)NCC(=O)NC1CC1)c1nc2ccc(-c3ccc4c(c3)C(=O)NC4)cc2s1` (centres unmarked) [Example 6, 2-cyano-N-[(cyclopropyl-carbamoyl)methyl]-2-[6-(3-oxo-2,3-dihydro-1H-isoindol-5-yl)-1,3-benzothiazol-2-yl] acetamide], the IC50 worked out at 259 nM. Compared with the last molecule, the IC50 is about 24-fold higher.

Take `N#CC(C(=O)NCC(=O)NC1CC1)c1nc2ncc(-c3cccc(C(=O)N4CCOCC4)c3)cc2s1` (centres unmarked) [Example 22, 2-cyano-N-[(cyclopropyl-carbamoyl)methyl]-2-{6-[3-(morpholine-4-carbonyl)phenyl]-[1,3]thiazolo[4,5-b]pyridin-2-yl}acetamide]: the IC50 worked out at 22 nM.

`N#CC(C(=O)NCC(=O)NC1CC1)c1nc2ncc(-c3ccc(C(N)=O)cc3)cc2s1` (centres unmarked) [Example 24, 4-{2-[cyano({[(cyclopropyl-carbamoyl)methyl]carbamoyl})methyl]-[1,3]thiazolo[4,5-b]pyridin-6-yl}benzamide] had an IC50 of 31 nM.

In turn, `N#CC(C(=O)NCC(=O)NC1CC1)c1nc2ccc(-c3cccc(C(=O)N4CCCCC4)c3)cc2s1` (centres unmarked) [Example 5, 2-cyano-N-[(cyclopropyl-carbamoyl)methyl]-2-{6-[3-(piperidine-1-carbonyl)phenyl]-1,3-benzothiazol-2-yl}acetamide] had an IC50 of 16 nM.

Take `N#CC(C(=O)NCC(=O)NC1CC1)c1nc2ccc(-c3ccc4c(c3)CNC4=O)cc2s1` (centres unmarked) [Example 8, 2-cyano-N-[(cyclopropyl-carbamoyl)methyl]-2-[6-(1-oxo-2,3-dihydro-1H-isoindol-5-yl)-1,3-benzothiazol-2-yl]acetamide]: the IC50 was determined as 5 nM.

On to `N#CC(C(=O)NCC(=O)NC1CC1)c1nc2ccc(-c3ccc(F)nc3)cc2s1` (centres unmarked) [Example 16, 2-cyano-N-[(cyclopropyl-carbamoyl)methyl]-2-[6-(6-fluoropyridin-3-yl)-1,3-benzothiazol-2-yl] acetamide], for which inhibition was half-maximal at 172 nM (IC50).

In turn, `N#CC(C(=O)NCC(=O)NC1CC1)c1nc2cc(-c3cccc(C(N)=O)c3)c(F)cc2s1` (centres unmarked) [Example 26, 3-{2-[cyano({[(cyclopropylcarbamoyl)methyl]carbamoyl})methyl]-6-fluoro-1,3-benzothiazol-5-yl}benzamide] showed an IC50 of 21 nM.

On to `CN1CCN(C(=O)c2cccc(-c3cc4nc(C(C#N)C(=O)NCC(=O)NC5CC5)sc4cc3F)c2)CC1` (centres unmarked) [Example 29, 2-cyano-N-[(cyclopropyl-carbamoyl)methyl]-2-{6-fluoro-5-[3-(4-methylpiperazine-1-carbonyl)phenyl]-1,3-benzothiazol-2-yl}acetamide], for which the IC50 came to 1 nM.

Consider `N#CC(C(=O)NCC(=O)NC1CC1)c1nc2ccc(-c3ccc(C(=O)N4CCOCC4)cc3)cc2s1` (centres unmarked) [Example 14, 2-cyano-N-(2-(cyclopropylamino)-2-oxoethyl)-2-(6-(4-(morpholine-4-carbonyl)phenyl)benzo[d]thiazol-2-yl)acetamide], for which the IC50 came to 62 nM.

`N#CC(C(=O)NCC(=O)NC1CC1)c1nc2ccc(-c3ccc(C(=O)N4CCC4)cc3)cc2s1` (centres unmarked) [Example 7, 2-{6-[4-(azetidine-1-carbonyl)phenyl]-1,3-benzothiazol-2-yl}-2-cyano-N-[(cyclopropyl-carbamoyl)methyl] acetamide] returned an IC50 of 15 nM. This IC50 lies about 4.1-fold lower than the previous one.

The molecule `N#CC(C(=O)NCC(=O)NC1COC1)c1nc2ccc(-c3ccc(F)nc3)cc2s1` (centres unmarked) [Example 17, 2-cyano-2-[6-(6-fluoropyridin-3-yl)-1,3-benzothiazol-2-yl]-N-{[(oxetan-3-yl)carbamoyl]methyl} acetamide] displayed an IC50 of 67 nM.

`N#CC(C(=O)NCC(=O)NC1CC1)c1nc2ccc(-c3ccccc3)cc2s1` (centres unmarked) [Example 1, 2-cyano-N-(2-(cyclopropylamino)-2-oxoethyl)-2-(6-phenylbenzo[d]thiazol-2-yl)acetamide]: the IC50 stood at 13 nM.

The molecule `Cn1ccc(-c2ccc3nc(C(C#N)C(=O)NCC(=O)NC4CC4)sc3c2)cc1=O` (centres unmarked) [Example 4, 2-cyano-N-[(cyclopropyl-carbamoyl)methyl]-2-[6-(1-methyl-2-oxo-1,2-dihydropyridin-4-yl)-1,3-benzothiazol-2-yl] acetamide] showed a 50% inhibitory concentration (IC50) greater than 10000 nM.

As for `CN(C)C(=O)c1ccc(-c2ccc3nc(C(C#N)C(=O)NCC(=O)NC4CC4)sc3c2)cc1F` (centres unmarked) [Example 3, 4-{2-[cyano ({[(cyclopropyl-carbamoyl)methyl]carbamoyl})methyl]-1,3-benzothiazol-6-yl}-2-fluoro-N,N-dimethyl-benzamide], 238 nM corresponded to half-maximal inhibition (IC50).

`N#CC(C(=O)NCC(=O)NC1CC1)c1nc2cc(-c3ccccc3)c(F)cc2s1` (centres unmarked) [Example 27, 2-cyano-N-[(cyclopropyl-carbamoyl)methyl]-2-(6-fluoro-5-phenyl-1,3-benzothiazol-2-yl)acetamide] returned an IC50 of 13 nM. Compared with the last molecule, the IC50 is about 18-fold lower.

As to `CN1CCN(C(=O)c2ccc(-c3cnc4nc(C(C#N)C(=O)NCC(=O)NC5CC5)sc4c3)cc2)CC1` (centres unmarked) [Example 23, 2-cyano-N-[(cyclopropyl-carbamoyl)methyl]-2-{6-[4-(4-methylpiperazine-1-carbonyl)phenyl]-[1,3]thiazolo[4,5-6]pyridin-2-yl}acetamide], the concentration for half-maximal inhibition (IC50) is 33 nM. Against the preceding molecule, the IC50 is about 2.5-fold higher.

With `CN(C)C(=O)c1cccc(-c2ccc3nc(C(C#N)C(=O)NCC(=O)NC4CC4)sc3c2)c1` (centres unmarked) [Example 2, 3-{2-[cyano ({[(cyclopropyl-carbamoyl)methyl]carbamoyl})methyl]-1,3-benzothiazol-6-yl}-N,N-dimethyl-benzamide], the IC50 came to 398 nM.

The values above are taken from patent US10597370B2, “2-(benzothiazol-2-yl)-2-cyano-acetamide derivatives and their use as endothelial lipase inhibitors” (BRISTOL-MYERS SQUIBB COMPANY, priority 2016, dated 2020).
